Experimental data: US5874455A, “Method for treatment of cataract with radical scavenger” (priority 1993, dated 1999)
Read-outs that look alike come from different tables or passages of the source.

Experiments:
[1] = system: Diamide-Treated Mice Lenses; experiment: Na+/K+ ratio and Ca2+ contents in diamide-treated mice lenses; type: cell-based, mouse (ddY); conditions: for Ca2+ content (in words) / Na+/K+ ratio (in words): 1 Mm (so in the source), vs control levels; for Ca2+ content / K+ content / Na+ content / Na/K ratio: diamide-treated lenses, 1 mM agent
Protocol: Male ddY mice, 6 weeks old, were killed by decapitation, and the […] were excised. The lenses were removed by a posterior approach and then transferred on a nylon net to a petri dish containing D-MEM medium (low glucose). The lenses were incubated at 37° C. for 19-20 hr in CO2 incubator under 5% CO2 -air and clear transparent lenses were collected to be used for following experiments. The lenses were incubated at 37° C. for 1.5 hr in 3 ml of isotonic HEPES buffer (10 mM HEPES, 136.2 mM NaCl, 5.3 mM KCl, 1.0 mM K2 HPO4, 1.7 mM CaC2 .cndot.2H2 O, 5.5 mM glucose pH 7.4) containing 1 mM diamide and the HEPES buffer without glucose. Those were transferred to an incubation test tube containing 3 ml of isotonic HEPES buffer (pH 7.4) with 1 mM DDC or GE. The diamide treated and non-treated controls were treated by the 5 hr-incubation without the above agents. The wet weight of these treated lenses were determined. Lenses were dried in vacuo at 100° C. for 8 hr, and then digested in 60% nitric acid (100 μl/lens) at 80° C. to degrade organic substances. One milliliter of purified water was added to the digests, and centrifuged at 3000×g for 10 min. Two tenth ml of the supernatant was mixed with 2 ml of purified water, and was used for measurement of Na^+ and K^+. One tenth milliliter of 100 μg/ml lanthanum chloride was added to the residual supernatant and used for measurement of Ca^2+, Na^+,K^+ and Ca^2+ contents in the lenses were determined by atomic absorption spectrometer (Hitachi 180-80, Tokyo, Japan).

[2] = biological target: Aldose Reductase from Rat Crystalline Lens (Rattus norvegicus, UniProt P07943); experiment: biochemical; type: biochemical
Protocol: Aldose reductase was prepared from rat lenses in the following manner. Lenses (20 to 30) were homogenized in 20 volumes of 5 mM sodium phosphate buffer (pH 7.4), followed by centrifugation at 18,000×g for 5 min to remove insoluble materials. Solid ammonium sulfate was added to the supernatant fluid to 30% saturation. The suspension was centrifuged at 18,000×g for 10 min and the supernatant was recovered. Aldose reductase was precipitated from 30% saturated solution by the addition of solid ammonium sulfate to 75% saturation, and obtained by centrifugation. The precipitate was collected and suspended in 3.2M ammonium sulfate.
The enzyme solution was assayed by following the absorbance at 340 nm on a Shimadzu UV-2000 spectrophotometer equipped with a temperature-controlled cuvette chamber. The solution (0.1 ml) was added to a cuvette containing phosphate buffer (1.6 ml, pH 6.2, 0.1M final concentration) and NADPH (0.1 ml, 0.25 mM final concentration), and the cuvette was inserted into the spectrophotometer. The reaction was started by the addition of DL-glyceraldehyde (0.1 ml, 50 mM final concentration) to the cuvette, and the decrease of absorbance at 340 nm for 5 min at 25° C. was measured. […] Agents to be tested were dissolved with a minimal amount of dimethylsulfoxide and diluted to the desired concentration with purified water. The resulting solution (0.1 ml) was added to the cuvette. The reference blank (to correct for non-specific oxidation of NADPH and absorption of the agents) was prepared by using water instead of DL-glyceraldehyde solution.

rabbit cornea = experiment: In vitro transcorneal penetration of DDC from liposomes; type: in vitro ADME
Protocol: Male rabbit, 2.0 kg of body weight was sacrificed by a injection of lethal dose of pentobarbital into a […] and then two eyeballs were removed from […]. The cornea was set to the cell in which donor side was filled with liposomes containing DSF and in reservoir side with 10 mM HEPES buffer (pH 7.4) containing 136 mM NaCl, 5.3 mM KCl, 1.0 mM K2 HPO4, 1.7 mM CaCl2 and 5.5 mM glucose, shown in FIG. 2. The penetration was carried out at 37° C. for 0-6 hr. The sample (50 μl) was withdrawn from reservoir side at the indicated times. DDC in the sample was determined by the HPLC method (FIG. 2).

[3] = system: Diamide-Treatment Mice Lenses; experiment: GSH content in diamide-treated mice lenses; type: cell-based, mouse (ddY); conditions: for GSH content: 1 mM diamide
Protocol: Male ddY mice, 6 weeks old, were killed by decapitation, and the globes were excised. The lenses were removed by a posterior approach and then transferred on a nylon net to an petri containing D-MEM medium (low glucose). The lenses were incubated at 37 ° C. for […] and clear transparent lenses were collected to be used for following experiments. […] Those were transferred to an incubation test tube containing 3 ml of isotonic HEPES buffer (pH 7.4) containing 5.5 mM glucose with 1 mM DDC or GE (glutathione isopropyl ester). The diamide treated and non-treated controls were treated by the 5 hr--incubation without the above agents. The wet weight of these treated lenses were determined.
The treated lenses were homogenized with 0.5 ml of purified water by Teflon homogenizer. GSH in the homogenate was determined by the method of Beutler using DTNB and the HPLC method followed.
Fifty microliter of the lens homogenate were added into 100 μl of acetonitrile containing 100 μg of sodium pantothenate (internal standard) and centrifuged at 12,000 rpm for 10 min. The supernatant solution (10 μl) was injected into a HPLC apparatus, Shimadzu LC-10AD equipped with a column oven, CTO-6A and the chromatography were performed under the conditions: a column of Supersphere 100RP-18 (particle size: 4 μm, column size: 4.0×250 mm), mobile phase of 5% methanol containing 1.0% TFA, flow rate of 1 ml/min, and column temperature at 35° C.

[4] = pH 6.2, 25° C., DL-glyceraldehyde substrate, read-out: IC50

With `O[C@H](CS)[C@H](O)CS` (relative stereo) [DTT] the “Ca2+ content (in words)” value [1] was “restored completely” and the “Na+/K+ ratio (in words)” value [1] was “restored completely”.
In the case of `CC(=C(CCO)SSCC1CCCO1)N(C=O)Cc1cnc(C)nc1N` (stereo in doubt) [Frusultiamine (Alinamine F), Frusultiamine], the IC50 [2, 4] is reported as 1000 µM.
In the case of `CO[C@@]1(NC(=O)CSCC#N)C(=O)N2C(C(=O)O)=C(CSc3nnnn3C)CS[C@@H]21` [CMZ, cefmetazole], the “Ca2+ content (in words)” value [1] is reported as “restored completely”, the “Na+/K+ ratio (in words)” value [1] is reported as “restored completely” and the “Ca2+ content” value [1] is reported as 1.11 ± 0.36 mmol/kg of H2 O. For the same molecule, the “K+ content” value [1] was 84.91 ± 10.06 mmol/kg of H2 O, the “Na+ content” value [1] was 40.59 ± 10.16 mmol/kg of H2 O and the Na/K ratio [1] was 0.50 ± 0.19. The “inhibitory activity against rat lens aldose reductase (in words)” value [2] was “lower inhibitory activities” and the IC50 [2, 4] was 450 µM.
For `CCN(CC)C(=S)S` [DDC, Diethyldithiocarbamate], the “DDC content in the reservoir solution relative to that at pH 8.0” value (rabbit cornea; pH 6.5, six hours after incubation) was “one third” and the “effect of BSA on DDC penetration (in words)” value (rabbit cornea; pH 8.0, 1.75% BSA in donor solution) was “did not affect”.
For `CCN(CC)C(=S)[S-].[Na+]` [DDC-Na, Sodium diethyldithiocarbamate], the “Ca2+ content” value [1] was 1.09 ± 0.33 mmol/kg of H2 O, the “K+ content” value [1] was 86.25 ± 4.02 mmol/kg of H2 O and the “Na+ content” value [1] was 36.56 ± 4.38 mmol/kg of H2 O. The Na/K ratio [1] was 0.43 ± 0.07, the GSH content ([3]; DTNB method, 1 mM agent) was 9.8 μg/lens and the GSH content ([3]; HPLC method, 1 mM agent) was 3.9 μg/lens. It also gave an IC50 [2] of 2600 µM.
For `CCN(CC)C(=S)SSC(=S)N(CC)CC` [DSF, tetraethylthiuram disulfide], the “inhibitory activity against rat lens aldose reductase (in words)” value [2] was “lower inhibitory activities” and the IC50 [2, 4] was 120 µM.
In the case of `CC(C)OC(=O)CNC(=O)[C@H](CS)NC(=O)CC[C@H](N)C(=O)O` [GE, Glutathione isopropyl ester], the “Ca2+ content (in words)” value [1] is reported as “restored completely”, the “Na+/K+ ratio (in words)” value [1] is reported as “restored completely” and the “Ca2+ content” value [1] is reported as 1.39 ± 0.30 mmol/kg of H2 O. The “K+ content” value [1] was 79.67 ± 8.63 mmol/kg of H2 O, the “Na+ content” value [1] was 51.60 ± 9.57 mmol/kg of H2 O and the Na/K ratio [1] was 0.67 ± 0.20. The “total GSH in diamide-treated lenses (in words)” value ([3]; DTNB method, 1 mM agent) was “restored by the control GSH level”, the GSH content ([3]; DTNB method, 1 mM agent) was 10.3 μg/lens and the “restoring of GSH (in words)” value ([3]; HPLC method) was “restoring of GSH”. The GSH content ([3]; HPLC method, 1 mM agent) was 4.0 μg/lens, the “inhibitory activity against rat lens aldose reductase (in words)” value [2] was “lower inhibitory activities” and the IC50 [2, 4] was 760 µM.
`N[C@@H](CCC(=O)N[C@@H](CS)C(=O)NCC(=O)O)C(=O)O` [Glutathione (GSH), Glutathione] showed an IC50 [2, 4] of 1550 µM.
`O=C(O)c1cc(O)c2c3nc4ccccc4oc-3cc(=O)c2n1` [Pirenoxine (Catalin), Pirenoxine] was tested, and the “inhibitory activity against rat lens aldose reductase (in words)” value [2] was “lower inhibitory activities” and the IC50 [2, 4] was 17.5 µM.
With `C[C@@H]1O[C@@H](Oc2c(-c3ccc(O)c(O)c3)oc3cc(O)cc(O)c3c2=O)[C@H](O)[C@H](O)[C@H]1O` [Quercitrin] the IC50 [2] was 0.26 µM and the “inhibitory activity against rat lens aldose reductase (in words)” value [2] was “lower inhibitory activities”.
`CC(S)C(=O)NCC(=O)O` (stereo not shown) [Tiopronin] was tested, and the IC50 [2, 4] was 1350 µM.
